# According to patent publication US20240287076A1, “COMPOUNDS FOR TARGETING DEGRADATION OF BRUTON'S TYROSINE KINASE” (BIOGEN MA INC., priority 2021, published 2024):
# Molecular target: T1, BTK (Homo sapiens, UniProt Q06187)
# T1 construct: The GM01501.3 cell line endogenously expresses BTK with a HiBiT fusion tag via CRISPR knock-in at its C-terminal region; endogenous in cells; host or cells: GM01501.3 (GM01501 cells engineered by CRISPR knock-in of HiBiT at the BTK locus)
# Assay: BTK degradation assay using the HiBiT Method (Nano-Glo HiBiT Lytic Assay, GM01501.3 cells)
# Assay type: cell-based
# Details: HiBiT Degradation on GM01501.3 BTK @ 6 hours
# Procedure, shortened: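 CRISPR knock-in GM01501.3 cells expressing endogenous BTK with C-terminal HiBiT tag, treated 6 h at 37 °C with compounds, 11-point half-log titration from 10 μM top, duplicates. Remaining BTK quantified by Nano-Glo HiBiT lytic luminescence versus DMSO controls; DC50 reported.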
# T1 sequence (Q06187 whole entry, the tested form may be a part): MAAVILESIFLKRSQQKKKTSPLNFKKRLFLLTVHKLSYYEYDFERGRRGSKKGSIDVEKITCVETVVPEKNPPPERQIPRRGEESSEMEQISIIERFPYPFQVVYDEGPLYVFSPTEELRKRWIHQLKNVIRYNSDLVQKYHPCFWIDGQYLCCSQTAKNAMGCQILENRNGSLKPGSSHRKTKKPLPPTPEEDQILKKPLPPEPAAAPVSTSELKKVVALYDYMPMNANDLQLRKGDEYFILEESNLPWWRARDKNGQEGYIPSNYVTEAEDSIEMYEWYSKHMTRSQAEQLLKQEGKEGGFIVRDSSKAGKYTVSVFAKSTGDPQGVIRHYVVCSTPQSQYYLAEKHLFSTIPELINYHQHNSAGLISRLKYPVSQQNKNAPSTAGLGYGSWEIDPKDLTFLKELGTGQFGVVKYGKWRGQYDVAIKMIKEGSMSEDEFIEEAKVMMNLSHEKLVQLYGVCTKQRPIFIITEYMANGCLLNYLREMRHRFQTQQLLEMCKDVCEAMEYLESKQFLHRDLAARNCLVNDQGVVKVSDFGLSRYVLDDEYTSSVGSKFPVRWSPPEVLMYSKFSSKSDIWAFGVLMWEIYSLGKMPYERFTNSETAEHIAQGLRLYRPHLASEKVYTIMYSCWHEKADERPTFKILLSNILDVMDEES
row,DC50,Compound
1,< 100 nM,"Cc1cc(-c2ncnn3cc(-c4ccc(CN5CCC(c6ccc(NC7CCC(=O)NC7=O)cc6Cl)CC5)cc4)cc23)ccc1CNC(=O)c1noc(C(C)(C)C)n1 (centres unmarked) [Example 24, 5-tert-butyl-N-[[4-[6-[4-[[4-[2-chloro-4-[(2,6-dioxo-3-piperidyl)amino]phenyl]-1-piperidyl]methyl]phenyl]pyrrolo[2,1-f][1,2,4]triazin-4-yl]-2-methyl-phenyl]methyl]-1,2,4-oxadiazole-3-carboxamide]"
2,< 100 nM,"CC(C)(C)c1nc(C(=O)NCc2ccc(-c3ncnn4cc(-c5ccc(OCCN6CCC(c7ccc(C8(C)CCC(=O)NC8=O)cc7)CC6)cc5)cc34)cc2F)no1 (centres unmarked) [Example 111, 5-tert-butyl-N-[[2-fluoro-4-[6-[4-[2-[4-[4-(3-methyl-2,6-dioxo-3-piperidyl)phenyl]-1-piperidyl]ethoxy]phenyl]pyrrolo[2,1-f][1,2,4]triazin-4-yl]phenyl]methyl]-1,2,4-oxadiazole-3-carboxamide]"
3,< 100 nM,"Cc1cc(-c2ncnn3cc(-c4ccc(CNC5CCc6cc(NC7CCC(=O)NC7=O)ccc6C5)cc4)cc23)ccc1CNC(=O)c1noc(C(C)(C)C)n1 (centres unmarked) [Example 202, 5-(tert-butyl)-N-(4-(6-(4-(((6-((2,6-dioxopiperidin-3-yl)amino)-1,2,3,4-tetrahydronaphthalen-2-yl)amino)methyl)phenyl)pyrrolo[2,1-f][1,2,4]triazin-4-yl)-2-methylbenzyl)-1,2,4-oxadiazole-3-carboxamide]"
4,< 100 nM,"Cc1cc(-c2ncnn3cc(CCN4CCC(c5ccc(NC6CCC(=O)NC6=O)cn5)CC4)cc23)ccc1CNC(=O)c1noc(C(C)(C)C)n1 (centres unmarked) [Example 252, 5-(tert-butyl)-N-(4-(6-(2-(4-(5-((2,6-dioxopiperidin-3-yl)amino)pyridin-2-yl)piperidin-1-yl)ethyl)pyrrolo[2,1-f][1,2,4]triazin-4-yl)-2-methylbenzyl)-1,2,4-oxadiazole-3-carboxamide]"
5,< 100 nM,"Cc1cc(-c2ncnn3cc(CCCCN4CCN(c5ccc(C6CCC(=O)NC6=O)cn5)CC4)cc23)ccc1CNC(=O)c1noc(C(C)(C)C)n1 (centres unmarked) [Example 279, 5-(tert-butyl)-N-(4-(6-(4-(4-(5-(2,6-dioxopiperidin-3-yl)pyridin-2-yl)piperazin-1-yl)butyl)pyrrolo[2,1-f][1,2,4]triazin-4-yl)-2-methylbenzyl)-1,2,4-oxadiazole-3-carboxamide]"
6,100 to 500 nM,"Cc1cc(-c2ncnn3cc(N4CCN(C(=O)CC5CCCCN5C(=O)c5ccc(OC6CCC(=O)NC6=O)cc5)CC4)cc23)ccc1CNC(=O)c1noc(C(C)(C)C)n1 (centres unmarked) [Example 176, 5-(tert-butyl)-N-(4-(6-(4-(2-(1-(4-((2,6-dioxopiperidin-3-yl)oxy)benzoyl)piperidin-2-yl)acetyl)piperazin-1-yl)pyrrolo[2,1-f][1,2,4]triazin-4-yl)-2-methylbenzyl)-1,2,4-oxadiazole-3-carboxamide]"
7,100 to 500 nM,"Cc1cc(-c2ncnn3cc(-c4ccc(CN5CCCC(c6ccc(C7CCC(=O)NC7=O)cc6)C5)cc4)cc23)ccc1CNC(=O)c1noc(C(C)(C)C)n1 (centres unmarked) [Example 8, 5-tert-butyl-N-[[4-[6-[4-[[3-[4-(2,6-dioxo-3-piperidyl)phenyl]-1-piperidyl]methyl]phenyl]pyrrolo[2,1-f][1,2,4]triazin-4-yl]-2-methyl-phenyl]methyl]-1,2,4-oxadiazole-3-carboxamide]"
8,< 100 nM,"Cc1cc(-c2ncnn3cc(-c4ccc(CN5CCC(c6ccc(NC7CCC(=O)NC7=O)cc6)CC5)cc4)cc23)ccc1CNC(=O)c1nc(C(C)(C)C)no1 (centres unmarked) [Example 79, 3-tert-butyl-N-[[4-[6-[4-[[4-[4-[(2,6-dioxo-3-piperidyl)amino]phenyl]-1-piperidyl]methyl]phenyl]pyrrolo[2,1-f][1,2,4]triazin-4-yl]-2-methyl-phenyl]methyl]-1,2,4-oxadiazole-5-carboxamide]"
9,< 100 nM,"Cc1cc(-c2ncnn3cc(-c4ccc(CN5CCC(c6cnc(NC7CCC(=O)NC7=O)cn6)CC5)cc4)cc23)ccc1CNC(=O)c1noc(C(C)(C)C)n1 (centres unmarked) [Example 12, 5-tert-butyl-N-[[4-[6-[4-[[4-[5-[(2,6-dioxo-3-piperidyl)amino]pyrazin-2-yl]-1-piperidyl]methyl]phenyl]pyrrolo[2,1-f][1,2,4]triazin-4-yl]-2-methyl-phenyl]methyl]-1,2,4-oxadiazole-3-carboxamide]"
10,< 100 nM,"Cc1cc(-c2ncnn3cc(N4CCN(C(=O)CC5CC6(C5)CN(C(=O)c5ccc(OC7CCC(=O)NC7=O)cc5)C6)CC4)cc23)ccc1CNC(=O)c1noc(C(C)(C)C)n1 (centres unmarked) [Example 185, 5-(tert-butyl)-N-(4-(6-(4-(2-(2-(4-((2,6-dioxopiperidin-3-yl)oxy)benzoyl)-2-azaspiro[3.3]heptan-6-yl)acetyl)piperazin-1-yl)pyrrolo[2,1-f][1,2,4]triazin-4-yl)-2-methylbenzyl)-1,2,4-oxadiazole-3-carboxamide]"
11,< 100 nM,"Cc1cc(-c2ncnn3cc(CCN4CCN(c5ccc(NC6CCC(=O)NC6=O)cn5)CC4)cc23)ccc1CNC(=O)c1noc(C(C)(C)C)n1 (centres unmarked) [Example 260, 5-(tert-butyl)-N-(4-(6-(2-(4-(5-((2,6-dioxopiperidin-3-yl)amino)pyridin-2-yl)piperazin-1-yl)ethyl)pyrrolo[2,1-f][1,2,4]triazin-4-yl)-2-methylbenzyl)-1,2,4-oxadiazole-3-carboxamide]"
12,< 100 nM,"Cc1cc(-c2ncnn3cc(N4CCN(C(=O)C5CCN(C(=O)c6ccc(OC7CCC(=O)NC7=O)cc6)C56CCC6)CC4)cc23)ccc1CNC(=O)c1noc(C(C)(C)C)n1 (centres unmarked) [Example 191, 5-(tert-butyl)-N-(4-(6-(4-(5-(4-((2,6-dioxopiperidin-3-yl)oxy)benzoyl)-5-azaspiro[3.4]octane-8-carbonyl)piperazin-1-yl)pyrrolo[2,1-f][1,2,4]triazin-4-yl)-2-methylbenzyl)-1,2,4-oxadiazole-3-carboxamide]"
13,< 100 nM,"Cc1cc(-c2ncnn3cc(-c4ccc(CN5CCN(c6ccc(NC7CCC(=O)NC7=O)cc6)CC5)cc4)cc23)ccc1CNC(=O)c1noc(C(C)(C)C)n1 (centres unmarked) [Example 29, 5-tert-butyl-N-[[4-[6-[4-[[4-[4-[(2,6-dioxo-3-piperidyl)amino]phenyl]piperazin-1-yl]methyl]phenyl]pyrrolo[2,1-f][1,2,4]triazin-4-yl]-2-methyl-phenyl]methyl]-1,2,4-oxadiazole-3-carboxamide]"
14,< 100 nM,"Cc1cc(-c2ncnn3cc(-c4ccc(CN5CCC(c6ccc(NC7CCC(=O)NC7=O)cc6)CC5)cc4)cc23)ccc1CNC(=O)C12CC(C(C)(C)C)(C1)C2 (centres unmarked) [Example 75, 3-tert-butyl-N-[[4-[6-[4-[[4-[4-[(2,6-dioxo-3-piperidyl)amino]phenyl]-1-piperidyl]methyl]phenyl]pyrrolo[2,1-f][1,2,4]triazin-4-yl]-2-methyl-phenyl]methyl]bicyclo[1.1.1]pentane-1-carboxamide]"
15,< 100 nM,"CN(CCn1ccc(NC2CCC(=O)NC2=O)n1)Cc1ccc(-c2cc3c(-c4ccc(CNC(=O)c5noc(C(C)(C)C)n5)c(F)c4)ncnn3c2)cc1F (centres unmarked) [Example 34, 5-tert-butyl-N-[[4-[6-[4-[[2-[3-[(2,6-dioxo-3-piperidyl)amino]pyrazol-1-yl]ethyl-methyl-amino]methyl]-3-fluoro-phenyl]pyrrolo[2,1-f][1,2,4]triazin-4-yl]-2-fluoro-phenyl]methyl]-1,2,4-oxadiazole-3-carboxamide]"
16,< 100 nM,"Cc1cc(-c2ncnn3cc(-c4ccc(CN5CCC(c6ccc(N[C@H]7CCC(=O)NC7=O)cc6F)CC5)cc4)cc23)ccc1CNC(=O)c1noc(C(C)(C)C)n1 [Example 25, (S)-5-(tert-butyl)-N-(4-(6-(4-((4-(4-((2,6-dioxopiperidin-3-yl)amino)-2-fluorophenyl)piperidin-1-yl)methyl)phenyl)pyrrolo[2,1-f][1,2,4]triazin-4-yl)-2-methylbenzyl)-1,2,4-oxadiazole-3-carboxamide]"
17,100 to 500 nM,"Cc1cc(-c2ncnn3cc(-c4ccc5sc(CN6CCC(c7ccc(C8CCC(=O)NC8=O)cc7)CC6)cc5n4)cc23)ccc1CNC(=O)c1noc(C(C)(C)C)n1 (centres unmarked) [Example 218, 5-(tert-butyl)-N-(4-(6-(2-((4-(4-(2,6-dioxopiperidin-3-yl)phenyl)piperidin-1-yl)methyl)thieno[3,2-b]pyridin-5-yl)pyrrolo[2,1-f] [1,2,4]triazin-4-yl)-2-methylbenzyl)-1,2,4-oxadiazole-3-carboxamide]"
18,< 100 nM,"CC(C)(C)c1nc(C(=O)NCc2ccc(-c3ncnn4cc(-c5ccc(CN6CCC(c7ccc(C8CCC(=O)NC8=O)cc7)CC6)cc5)cc34)cc2F)no1 (centres unmarked) [Example 42, 5-tert-butyl-N-[[4-[6-[4-[[4-[4-(2,6-dioxo-3-piperidyl)phenyl]-1-piperidyl]methyl]phenyl]pyrrolo[2,1-f][1,2,4]triazin-4-yl]-2-fluoro-phenyl]methyl]-1,2,4-oxadiazole-3-carboxamide]"

row,Compound,DC50
1,"Cn1nc(N2CCC(=O)NC2=O)c2ccc(C3CCN(Cc4ccc(-c5cc6nccc(-c7ccc(CNC(=O)N8CC(OC(C)(C)C)C8)c(F)c7)n6n5)cc4F)CC3)cc21 [Example 167, 3-tert-butoxy-N-[[4-[2-[4-[[4-[3-(2,4-dioxohexahydropyrimidin-1-yl)-1-methyl-indazol-6-yl]-1-piperidyl]methyl]-3-fluoro-phenyl]pyrazolo[1,5-a]pyrimidin-7-yl]-2-fluoro-phenyl]methyl]azetidine-1-carboxamide]",< 100 nM
2,"Cn1nc(N2CCC(=O)NC2=O)c2ccc(C3CCN(Cc4ccc(-c5cc6nccc(-c7ccc(CNC(=O)N8CC(OC(C)(C)C)C8)c(F)c7)n6n5)cc4)CC3)cc21 [Example 165, 3-tert-butoxy-N-[[4-[2-[4-[[4-[3-(2,4-dioxohexahydropyrimidin-1-yl)-1-methyl-indazol-6-yl]-1-piperidyl]methyl]phenyl]pyrazolo[1,5-a]pyrimidin-7-yl]-2-fluoro-phenyl]methyl]azetidine-1-carboxamide]",< 100 nM
